Our source for the IC50 values is patent US8415305B2, “Use of cyclic depsipeptides to inhibit kallikrein 7” (Novartis AG, priority 2007, dated 2013).

SMILES strings stand for the structures.

For this experiment, the target named is human kallikrein 7 (hKallikrein7) (Homo sapiens, UniProt P49862). Put plainly: Kallikrein 7 fluorescence-quenched substrate enzymatic assay (IC50). Type of experiment: biochemical. As for the experimental part: An “inhibitor” is a cyclic depsipeptide that inhibits an enzymatic reaction with a measure IC50 of less than […], for instance 50 μM, 30 μM, 20 μM or 10 μM. Particularly preferred are cyclic depsipeptides with an IC50 of less than 30 μM for human kallikrein 7, for instance cyclic depsipeptides with an IC50 of less than 10 μM, 1 μM, 100 nM, 50 nM, 40 nM, 30 nM, 20 nM, 10 nM, or less. IC50 for human kallikrein can be measured using the fluorescence-quenched substrate Ac-Glu-Asp(EDANS)-Lys-Pro-lle-Leu-Phe^Arg-Leu-Gly-Lys(DABCYL)-Glu-NH2 (SEQ ID NO 1) (where ^ indicates the scissile bond, identified by MS analysis) which can be purchased from Biosyntan (Berlin, Germany). Enzymatic reactions are conducted in 50 mM sodium citrate buffer at pH 5.6 containing 150 mM NaCl and 0.05% (w/v) CHAPS. For the determination of IC50 values the assay is performed at room temperature in 384-well plates. All final assay volumes are 30 μl. Test compounds are dissolved in 90% (v/v) DMSO/water and diluted in water (containing 0.05% (w/v) CHAPS) to 3-times the desired assay concentration. The 11 final compound concentrations are: 0.3 nM, 1 nM, 3 nM, 10 nM, 30 nM, 100 nM, 300 nM, 1 μM, 3 μM, 10 μM and 30 μM. For each assay, 10 μl water/CHAPS (±test compound) are added per well, followed by 10 μl protease solution (diluted with 1.5× assay buffer). The protease concentration in final assay solution is 0.2 nM (according to the enzyme concentrations determined by the Bradford method). After 1 hour of incubation at room temperature, the reaction is started by addition of 10 μl substrate solution (substrate dissolved in 1.5× assay buffer, final concentration is 2 μM). The effect of the compound on the enzymatic activity is obtained from the linear progress curves and determined from two readings, the first one taken directly after the addition of substrate (t=0 min) and the second one after 1 hour (t=60 min). The IC50 value is calculated from the plot of percentage of inhibition vs. inhibitor concentration using non-linear regression analysis software (XLfit, Vers. 4.0; ID Business Solution Ltd., Guildford, Surrey, UK).
Chain of human kallikrein 7 (hKallikrein7) (P49862 30-253): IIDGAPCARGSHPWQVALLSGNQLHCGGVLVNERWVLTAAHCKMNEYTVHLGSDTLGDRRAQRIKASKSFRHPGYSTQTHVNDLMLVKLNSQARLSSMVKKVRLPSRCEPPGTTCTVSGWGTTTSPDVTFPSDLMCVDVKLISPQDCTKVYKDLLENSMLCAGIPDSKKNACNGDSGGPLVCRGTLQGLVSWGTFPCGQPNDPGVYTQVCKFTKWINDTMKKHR
The fluorescence-quenched substrate Ac-Glu-Asp(EDANS)-Lys-Pro-lle-Leu-Phe^Arg-Leu-Gly-Lys(DABCYL)-Glu-NH2 (SEQ ID NO1) (where ^ indicates the scissile bond, identified by MS analysis) is purchased from Biosyntan (Berlin, Germany) and kept as a 5 mM stock solution in DMSO at −20° C. All other chemicals are of analytical grade. […]
For fluorescence intensity (FI) measurements an Ultra Evolution reader (TECAN, Maennedorf, Switzerland) is used. The instrument is equipped with a combination of a 350 nm (20 nm bandwidth) and a 500 nm (25 nm bandwidth) bandpath filter for fluorescence excitation and emission acquisition, respectively. […]
Turning to `CCC(C)C(=O)N[C@@H](CCC(N)=O)C(=O)NC1C(=O)N[C@@H](CC(C)C)C(=O)NC2CC[C@H](O)N(C2=O)[C@@H](C(C)CC)C(=O)N(C)[C@@H](Cc2ccc(O)cc2)C(=O)N[C@@H](C(C)CC)C(=O)O[C@@H]1C` (stereo partly shown) [formula (III)], the half-inhibitory concentration (IC50) (usually the concentration needed to halve the response being measured) worked out at 0.4 nM.
To `CCC(C)C(=O)N[C@@H](CCC(N)=O)C(=O)N[C@H]1C(=O)N[C@@H](CC(C)C)C(=O)N[C@H]2CC=CN(C2=O)[C@@H](C(C)CC)C(=O)N(C)[C@@H](Cc2ccc(O)cc2)C(=O)N[C@@H](C(C)CC)C(=O)O[C@@H]1C` (stereo partly shown) [formula (IV)] belongs 5 nM; to `CCC(C)[C@@H]1NC(=O)[C@H](Cc2ccc(O)cc2)N(C)C(=O)[C@H](C(C)CC)N2C=CC[C@H](NC(=O)[C@H](CC(C)C)NC(=O)[C@H](NC(=O)[C@H](CCC(N)=O)NC(=O)C(C)C)[C@@H](C)OC1=O)C2=O` (stereo partly shown) [formula (V)], 6 nM.
The figure for `CCC(C)[C@@H]1NC(=O)[C@H](Cc2ccc(O)cc2)N(C)C(=O)[C@H](C(C)CC)N2C(=O)C(CC[C@@H]2O)NC(=O)[C@H](CC(C)C)NC(=O)[C@H](NC(=O)[C@H](CCC(N)=O)NC(=O)C(C)C)[C@@H](C)OC1=O` (stereo partly shown) [formula (II)] is 1 nM.
